Our source for the IC50 values is US20140135319A1, “6-SUBSTITUTED IMIDAZOPYRAZINES FOR USE AS MPS-1 AND TKK INHIBITORS IN THE TREATMENT OF HYPERPROLIFERATIVE DISORDERS” (BAYER INTELLECTUAL PROPERTY GMBH, priority 2010, published 2014).

This experiment concerns the target T1, human kinase Mps-1 (Homo sapiens, UniProt P33981).
T1 construct: N-terminally GST-tagged human full length recombinant Mps-1 kinase; GST (N); purchased Invitrogen, Karslruhe, Germany PV4071
T1 sequence (P33981 1-857): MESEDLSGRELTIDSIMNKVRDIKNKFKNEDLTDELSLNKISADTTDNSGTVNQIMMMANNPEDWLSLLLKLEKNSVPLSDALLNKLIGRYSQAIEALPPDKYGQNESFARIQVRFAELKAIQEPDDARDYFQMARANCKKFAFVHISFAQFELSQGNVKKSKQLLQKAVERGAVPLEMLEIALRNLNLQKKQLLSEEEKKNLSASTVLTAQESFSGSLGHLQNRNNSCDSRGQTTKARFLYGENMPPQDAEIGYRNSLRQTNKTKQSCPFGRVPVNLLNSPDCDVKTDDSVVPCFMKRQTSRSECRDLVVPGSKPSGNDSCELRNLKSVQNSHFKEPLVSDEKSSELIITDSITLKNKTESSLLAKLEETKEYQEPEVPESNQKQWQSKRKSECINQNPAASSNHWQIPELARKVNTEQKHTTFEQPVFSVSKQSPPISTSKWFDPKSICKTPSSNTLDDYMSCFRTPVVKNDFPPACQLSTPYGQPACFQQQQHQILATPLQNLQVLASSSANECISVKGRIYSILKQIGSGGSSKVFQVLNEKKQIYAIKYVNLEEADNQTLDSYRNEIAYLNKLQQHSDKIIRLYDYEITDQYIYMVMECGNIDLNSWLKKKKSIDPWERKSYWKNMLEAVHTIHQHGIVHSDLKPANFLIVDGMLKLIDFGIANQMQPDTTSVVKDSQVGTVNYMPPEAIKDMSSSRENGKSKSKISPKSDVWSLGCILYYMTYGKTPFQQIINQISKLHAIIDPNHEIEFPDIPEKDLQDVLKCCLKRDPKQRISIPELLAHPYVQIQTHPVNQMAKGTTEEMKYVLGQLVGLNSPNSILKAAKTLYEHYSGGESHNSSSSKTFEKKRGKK
Kind of experiment: Mps-1 kinase assay (TR-FRET). The note with it: GST-tagged human full length recombinant Mps-1; 10 μM ATP; 1 μM peptide substrate; 60 min at 22° C. It counts as biochemical. A digest of the protocol:
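N-terminally GST-tagged full-length recombinant human Mps-1, about 1 nM final, phosphorylates a biotinylated peptide. Product detected by TR-FRET from Eu-anti-phospho-Ser/Thr antibody to streptavidin-XLent after 1 h at 22° C.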

On to `Cc1cc(-c2cnc3c(NCCC(F)(F)F)nc(-c4ccoc4)cn23)ccc1C(=O)NC1CC1` [Example 1-71, N-cyclopropyl-4-{6-(furan-3-yl)-8-[(3,3,3-tri-fluoropropyl)amino]imidazo[1,2-a]pyrazin-3-yl}-2-methylbenzamide], for which the concentration for half-maximal inhibition (IC50) is 3.9 nM.

Regarding `CCOc1ccc(-c2cn3c(-c4ccc(C(=O)NC5CC5)c(C)c4)cnc3c(NCCC(F)(F)F)n2)cn1` [Example 1-72, N-cyclopropyl-4-{6-(6-ethoxypyridin-3-yl)-8-[(3,3,3-trifluoropropyl)amino]imidazo[1,2-a]pyrazin-3-yl}-2-methyl-benzamide], the half-maximal inhibitory concentration (IC50) came to 9.9 nM. `Cc1cc(-c2cnc3c(NCCC(F)(F)F)nc(-c4cncnc4)cn23)ccc1C(=O)NC1CC1` [Example 1-73, N-cyclopropyl-2-methyl-4-{6-(pyrimidin-5-yl)-8-[(3,3,3-trifluoropropyl)amino]imidazo[1,2-a]pyrazin-3-yl}benzamide]: the half-maximal inhibitory concentration (IC50) amounted to 21.4 nM.

In the case of `Cc1cc(-c2cnc3c(NCCC(F)(F)F)nc(-c4c(C)noc4C)cn23)ccc1C(=O)NC1CC1` [Example 1-74, N-cyclopropyl-4-{6-(3,5-dimethyl-1,2-oxazol-4-yl)-8-[(3,3,3-trifluoro-propyl)amino]imidazo [1,2-a]pyrazin-3-yl}-2-methylbenzamide], the 50% inhibitory concentration (IC50) came out at 4.1 nM. The figure for `Cc1cc(-c2cnc3c(NCCC(F)(F)F)nc(-c4cccn4C)cn23)ccc1C(=O)NC1CC1` [Example 1-75, N-cyclopropyl-2-methyl-4-{6-(1-methyl-1H-pyrrol-2-yl)-8-[(3,3,3-trifluoro-propyl)amino]imidazo [1,2-a]pyrazin-3-yl} benzamide] is 3.8 nM. In the case of `Cc1cc(-c2cnc3c(NCCC(F)(F)F)nc(C4=CCNCC4)cn23)ccc1C(=O)NC1CC1` [Example 1-76, N-cyclopropyl-2-methyl-4-{6-(1,2,3,6-tetrahydro-pyridin-4-yl)-8-[(3,3,3-trifluoropropyl)amino]imidazo[1,2-a]pyrazin-3-yl}benzamide], the 50% inhibitory concentration (IC50) came to 13 nM. The result for `Cc1cc(-c2cnc3c(NCCC(F)(F)F)nc(-c4cc[nH]n4)cn23)ccc1C(=O)NC1CC1` [Example 1-77, N-cyclopropyl-2-methyl-4-{6-(1H-pyrazol-3-yl)-8-[(3,3,3-trifluoropropyl)amino]imidazo[1,2-a]pyrazin-3-yl}benzamide] reads 3.3 nM; that for `Cc1cc(-c2cnc3c(NCCC(F)(F)F)nc(-c4cn[nH]c4)cn23)ccc1C(=O)NC1CC1` [Example 1-78, N-cyclopropyl-2-methyl-4-{6-(1H-pyrazol-4-yl)-8-[(3,3,3-trifluoro-propyl)amino]imidazo [1,2-a]pyrazin-3-yl} benzamide], 4.7 nM. The result for `Cc1cc(-c2cnc3c(NCCC(F)(F)F)nc(C4=CCSCC4)cn23)ccc1C(=O)NC1CC1` [Example 1-79, N-cyclopropyl-4-{6-(3,6-dihydro-2H-thiopyran-4-yl)-8-[(3,3,3-trifluoro-propyl)amino]imidazo [1,2-a]pyrazin-3-yl}-2-methylbenzamide] reads 2.8 nM; that for `O=C(NC1CC1)c1ccc(-c2cnc3c(NCCCO)nc(-c4ccncc4)cn23)cc1` [Example 1-85, N-cyclopropyl-4-{8-[(3-hydroxypropyl)amino]-6-(pyridin-4-yl)imidazo[1,2-a]pyrazin-3-yl}benzamide], 9.1 nM. `N#CCCNc1nc(-c2cccc(CC(N)=O)c2)cn2c(-c3ccc(C(=O)NC4CC4)cc3)cnc12` [Example 1-86, 4-{6-[3-(2-amino-2-oxo-ethyl)phenyl]-8-[(2-cyano-ethyl)amino]imidazo[1,2-a]pyrazin-3-yl}-N-cyclo-propylbenzamide]: the IC50 worked out at 3.9 nM. The result for `Cc1ccc(-c2cn3c(-c4ccc(C(=O)NC5CC5)cc4)cnc3c(NCC(C)C)n2)cc1CC(N)=O` [Example 1-87, 4-{6-[3-(2-amino-2-oxoethyl)-4-methylphenyl]-8-(isobutyl-amino)imidazo[1,2-a]pyrazin-3-yl}-N-cyclopropyl-benzamide] reads 2.3 nM. Consider `CC(C)CNc1nc(-c2cccc(CC(=O)O)c2)cn2c(-c3ccc(C(=O)NC4CC4)cc3)cnc12` [Example 1-88, (3-{3-[4-(cyclopropyl-carbamoyl)phenyl]-8-(iso-butylamino)imidazo[1,2-a]pyrazin-6-yl}phenyl)acetic acid], for which the IC50 was determined as 50.3 nM. The result for `NC(=O)Cc1cccc(-c2cn3c(-c4ccc(C(=O)NC5CC5)cc4)cnc3c(NCCCO)n2)c1` [Example 1-89, 4-{6-[3-(2-amino-2-oxo-ethyl)phenyl]-8-[(3-hydroxy-propyl)amino]imidazo[1,2-a]pyrazin-3-yl}-N-cyclopropyl-benzamide] reads 4.8 nM; that for `CC(C)(O)CNc1nc(-c2ccncc2)cn2c(-c3ccc(C(=O)NC4CC4)cc3)cnc12` [Example 1-90, N-cyclopropyl-4-{8-[(2-hydroxy-2-methylpropyl)amino]-6-(pyridin-4-yl)imidazo[1,2-a]pyrazin-3-yl} benzamide], 5 nM. The result for `CC(C)(O)CNc1nc(-c2cccc(CC(N)=O)c2)cn2c(-c3ccc(C(=O)NC4CC4)cc3)cnc12` [Example 1-91, 4-{6-[3-(2-Amino-2-oxo-ethyl)phenyl]-8-[(2-hydroxy-2-methylpropyl)amino]imidazo[1,2-a]pyrazin-3-yl}-N-cyclopropylbenzamide] reads 4 nM; that for `Cn1nccc1CNc1nc(-c2cccc(CC(N)=O)c2)cn2c(-c3ccc(C(=O)NC4CC4)cc3)cnc12` [Example 1-92, 4-(6-[3-(2-Amino-2-oxo-ethyl)phenyl]-8-{[(1-methyl-1H-pyrazol-5-yl)methyl]amino}imidazo[1,2-a]pyrazin-3-yl)-N-cyclopropyl benzamide], 3.8 nM; that for `Cn1cc(CNc2nc(-c3cccc(CC(N)=O)c3)cn3c(-c4ccc(C(=O)NC5CC5)cc4)cnc23)cn1` [Example 1-93, 4-(6-[3-(2-Amino-2-oxo-ethyl)phenyl]-8-{[(1-methyl-1H-pyrazol-4-yl)methyl]amino}imidazo[1,2-a]pyrazin-3-yl)-N-cyclopropyl benzamide], 4.9 nM.

As for `Cn1ccc(CNc2nc(-c3cccc(CC(N)=O)c3)cn3c(-c4ccc(C(=O)NC5CC5)cc4)cnc23)n1` [Example 1-94, 4-(6-[3-(2-Amino-2-oxo-ethyl)phenyl]-8-{[(1-methyl-1H-pyrazol-3-yl)methyl]amino}imidazo[1,2-a]pyrazin-3-yl)-N-cyclopropyl benzamide], the concentration for half-maximal inhibition (IC50) worked out at 4.9 nM. Turning to `NCCCCNc1nc(-c2cccc(CC(N)=O)c2)cn2c(-c3ccc(C(=O)NC4CC4)cc3)cnc12` [Example 1-95, 4-{8-[(4-Aminobutyl)amino]-6-[3-(2-amino-2-oxoethyl)phenyl]imidazo[1,2-a]pyrazin-3-yl}-N-cyclo-propylbenzamide], the 50% inhibitory concentration (IC50) stood at 19.2 nM.

In the case of `NCCCCCNc1nc(-c2cccc(CC(N)=O)c2)cn2c(-c3ccc(C(=O)NC4CC4)cc3)cnc12` [Example 1-96, 4-{6-[3-(2-Amino-2-oxo-ethyl)phenyl]-8-[(5-amino-pentyl)amino]imidazo[1,2-a]pyrazin-3-yl}-N-cyclo-propylbenzamide], the concentration for half-maximal inhibition (IC50) came out at 5.6 nM.

As to `Cn1nccc1-c1cn2c(-c3ccc(C(=O)NC4CC4)cc3)cnc2c(NCC(C)(C)O)n1` [Example 1-97, N-cyclopropyl-4-{8-[(2-hydroxy-2-methylpropyl)amino]-6-(1-methyl-1H-pyrazol-5-yl)imidazo[1,2-a]pyrazin-3-yl}benzamide], the half-maximal inhibitory concentration (IC50) stood at 17.8 nM. In the case of `Cn1nccc1-c1cn2c(-c3ccc(C(=O)NC4CC4)c(Cl)c3)cnc2c(NCCCN)n1` [Example 1-98, 4-{8-[(3-Aminopropyl)amino]-6-(1-methyl-1H-pyrazol-5-yl)imidazo[1,2-a]pyrazin-3-yl}-2-chloro-N-cyclopropylbenzamide], the IC50 was determined as 1340 nM. The result for `Cc1ccc(-c2cn3c(-c4ccc(C(=O)NC5CC5)cc4)cnc3c(NCC(C)(C)O)n2)cc1CC(N)=O` [Example 1-99, 4-{6-[3-(2-Amino-2-oxo-ethyl)-4-methylphenyl]-8-[(2-hydroxy-2-methylpropyl)amino]imidazo[1,2-a]pyrazin-3-yl}-N-cyclopropylbenzamide] reads 16.1 nM; that for `COc1cc(C(=O)NC2CC2)ccc1-c1cnc2c(NCCCN)nc(-c3ccncc3)cn12` [Example 1-100, 4-{8-[(3-Aminopropyl)amino]-6-(pyridin-4-yl)imidazo [1,2-a]pyrazin-3-yl}-N-cyclopropyl-3-methoxy-benzamide], 309 nM; that for `NCCCNc1nc(-c2ccncc2)cn2c(-c3ccc(C(=O)NC4CC4)c(Cl)c3)cnc12` [Example 1-101, 4-{8-[(3-Aminopropyl)amino]-6-(pyridin-4-yl)imidazo [1,2-a]pyrazin-3-yl}-2-chloro-N-cyclopropyl-benzamide], 361 nM.

As a reminder, the IC50 is the concentration at which inhibition is half-maximal.
